Experimental findings from patent publication US20250243245A1 (priority 2022, published 2025) are described below.

Structures are written as SMILES. Where a SMILES comes first, the peptide text is derived from it. Bounds are passed on as bounds.

In this test the test system is E. coli strain BL21. Particulars: BL21, 24 h.

In turn, `CC(C)C[C@H](NC(=O)[C@H](CCCNC(=N)N)NC(=O)[C@H](CCCNC(=N)N)NC(=O)[C@H](CCC(N)=O)NC(=O)[C@H](Cc1c[nH]c2ccccc12)NC(=O)[C@H](CCC(N)=O)NC(=O)[C@H](Cc1ccccc1)NC(=O)[C@H](C)NC(=O)[C@H](CCC(=O)O)NC(=O)[C@@H]1CCCN1C(=O)[C@H](CC(C)C)NC(=O)[C@@H](N)CCCNC(=N)N)C(=O)N[C@@H](CCCNC(=N)N)C(=O)N[C@@H](CCCNC(=N)N)C(=O)N[C@@H](Cc1c[nH]c2ccccc12)C(=O)N[C@@H](CCCNC(=N)N)C(=O)N[C@@H](CCCNC(=N)N)C(=O)N1CCC[C@H]1C(=O)N[C@@H](CC(=O)O)C(=O)N[C@@H](CO)C(=O)N1CCC[C@H]1C(=O)NCC(=O)N[C@@H](CCCNC(=N)N)C(=O)N[C@@H](CCCNC(=N)N)C(=O)N[C@@H](Cc1c[nH]c2ccccc12)C(=O)N[C@@H](Cc1c[nH]c2ccccc12)C(=O)N[C@@H](CCCNC(=N)N)C(=O)N[C@@H](Cc1c[nH]c2ccccc12)C(=O)N[C@@H](Cc1c[nH]c2ccccc12)C(=O)N[C@@H](CCCNC(=N)N)C(=O)O` [UGK-5] (H-RLPEAFQWQRRLRRWRRPDSPGRRWWRWWR-OH; N-terminus and C-terminus assumed) returned an MIC of 5 to 10 mM. For the compound `CC[C@H](C)[C@H](NC(=O)[C@H](CCCNC(=N)N)NC(=O)[C@H](CCCNC(=N)N)NC(=O)[C@H](CCC(N)=O)NC(=O)[C@H](Cc1c[nH]c2ccccc12)NC(=O)[C@H](Cc1ccccc1)NC(=O)CNC(=O)[C@@H]1CCCN1C(=O)[C@H](CO)NC(=O)CNC(=O)[C@H](Cc1ccc(O)cc1)NC(=O)CNC(=O)[C@H](CO)NC(=O)CNC(=O)[C@H](CCCNC(=N)N)NC(=O)[C@H](Cc1c[nH]c2ccccc12)NC(=O)[C@H](Cc1c[nH]c2ccccc12)NC(=O)[C@H](CCCNC(=N)N)NC(=O)[C@H](Cc1c[nH]c2ccccc12)NC(=O)[C@H](Cc1c[nH]c2ccccc12)NC(=O)[C@H](CCCNC(=N)N)NC(=O)[C@@H](N)CCCNC(=N)N)C(=O)N[C@@H](CCCNC(=N)N)C(=O)N[C@@H](CCCNC(=N)N)C(=O)N[C@@H](Cc1c[nH]c2ccccc12)C(=O)N[C@@H](CCCNC(=N)N)C(=O)N[C@@H](CCCNC(=N)N)C(=O)O` [Peptide 27P-1] (H-RRWWRWWRGSGYGSPGFWQRRIRRWRR-OH; N-terminus and C-terminus assumed), the minimal inhibitory concentration (MIC) is greater than 20 mM.

`CC[C@H](C)[C@H](NC(=O)[C@H](CCCCN)NC(=O)[C@H](CC(C)C)NC(=O)[C@@H](NC(=O)[C@H](CCCCN)NC(=O)[C@H](CCCNC(=N)N)NC(=O)[C@H](C)NC(=O)[C@@H]1CCCN1C(=O)[C@H](CCCCN)NC(=O)[C@@H](N)CCCNC(=N)N)C(C)C)C(=O)N[C@@H](CC(C)C)C(=O)NCC(=O)N[C@@H](CCCNC(=N)N)C(=O)NCC(=O)N[C@@H](CO)C(=O)N[C@@H](CCC(=O)O)C(=O)N[C@@H](Cc1ccccc1)C(=O)N[C@@H](Cc1c[nH]c2ccccc12)C(=O)N[C@@H](CCC(N)=O)C(=O)N[C@@H](CCCCN)C(=O)N[C@@H](CCCNC(=N)N)C(=O)N[C@H](C(=O)N[C@@H](CCCNC(=N)N)C(=O)N[C@@H](CCCNC(=N)N)C(=O)N[C@@H](Cc1c[nH]c2ccccc12)C(=O)N[C@@H](CCCNC(=N)N)C(=O)N[C@@H](CCCNC(=N)N)C(=O)O)C(C)C` [Peptide 27P-3] (H-RKPARKVLKILGRGSEFWQKRVRRWRR-OH; N-terminus and C-terminus assumed): the MIC is 10 to 20 mM.

Turning to `CC[C@H](C)[C@H](NC(=O)[C@H](CCCCN)NC(=O)[C@H](CC(C)C)NC(=O)[C@@H](NC(=O)[C@H](CCCCN)NC(=O)[C@H](CCCCN)NC(=O)[C@@H](NC(=O)[C@H](CC(C)C)NC(=O)[C@H](CCCCN)NC(=O)[C@@H](N)CCCCN)[C@@H](C)CC)[C@@H](C)CC)C(=O)N[C@@H](CC(C)C)C(=O)NCC(=O)N[C@@H](CO)C(=O)NCC(=O)N[C@@H](Cc1ccc(O)cc1)C(=O)NCC(=O)N[C@@H](CO)C(=O)N1CCC[C@H]1C(=O)NCC(=O)N[C@@H](Cc1ccccc1)C(=O)N[C@@H](Cc1c[nH]c2ccccc12)C(=O)N[C@@H](CCC(N)=O)C(=O)N[C@@H](CCCNC(=N)N)C(=O)N[C@@H](CCCNC(=N)N)C(=O)N[C@H](C(=O)N[C@@H](CCCNC(=N)N)C(=O)N[C@@H](CCCNC(=N)N)C(=O)N[C@@H](Cc1c[nH]c2ccccc12)C(=O)N[C@@H](CCCNC(=N)N)C(=O)N[C@@H](CCCNC(=N)N)C(=O)O)[C@@H](C)CC` [Peptide 30P-1], the minimum inhibitory concentration (MIC) lay in the range of 1.25 to 2.5 mM. With `CC[C@H](C)[C@H](N)C(=O)N[C@@H](CCC(=O)O)C(=O)N[C@@H](CCCNC(=N)N)C(=O)N[C@@H](CO)C(=O)N[C@@H](CCCNC(=N)N)C(=O)N[C@@H](CC(N)=O)C(=O)N[C@@H](CC(C)C)C(=O)N[C@@H](CC(=O)O)C(=O)N[C@@H](Cc1c[nH]c2ccccc12)C(=O)N[C@@H](Cc1ccc(O)cc1)C(=O)N[C@@H](CCCCN)C(=O)NCC(=O)N1CCC[C@H]1C(=O)N[C@H](C(=O)N[C@@H](CC(C)C)C(=O)N[C@@H](CC(C)C)C(=O)N[C@@H](CC(=O)O)C(=O)N[C@@H](C)C(=O)N[C@@H](CC(C)C)C(=O)N[C@@H](CCCCN)C(=O)N[C@@H](CC(N)=O)C(=O)N[C@@H](CC(C)C)C(=O)N[C@@H](CC(N)=O)C(=O)N[C@@H](CCC(=O)O)C(=O)NCC(=O)N[C@@H](CCCCN)C(=O)N[C@@H](CCCNC(=N)N)C(=O)N1CCC[C@H]1C(=O)N[C@@H](CO)C(=O)N[C@@H](CC(=O)O)C(=O)N[C@@H](CCCCN)C(=O)O)[C@@H](C)O` [Peptide I31LB] (H-IERSRNLDWYKGPTLLDALKNLNEGKRPSDK-OH; N-terminus and C-terminus assumed), the minimum inhibitory concentration (MIC) is given as greater than 20 mM. Consider `CC[C@H](C)[C@H](NC(=O)[C@H](CCCNC(=N)N)NC(=O)[C@H](CCCNC(=N)N)NC(=O)[C@H](CCC(N)=O)NC(=O)[C@H](Cc1c[nH]c2ccccc12)NC(=O)[C@@H](N)Cc1ccccc1)C(=O)N[C@@H](CCCNC(=N)N)C(=O)N[C@@H](CCCNC(=N)N)C(=O)N[C@@H](Cc1c[nH]c2ccccc12)C(=O)N[C@@H](CCCNC(=N)N)C(=O)N[C@@H](CCCNC(=N)N)C(=O)NCC(=O)N[C@@H](CO)C(=O)NCC(=O)N[C@@H](Cc1ccc(O)cc1)C(=O)NCC(=O)N[C@@H](CO)C(=O)N1CCC[C@H]1C(=O)NCC(=O)N[C@@H](CCCNC(=N)N)C(=O)N[C@@H](CCCNC(=N)N)C(=O)N[C@@H](Cc1c[nH]c2ccccc12)C(=O)N[C@@H](Cc1c[nH]c2ccccc12)C(=O)N[C@@H](CCCNC(=N)N)C(=O)N[C@@H](Cc1c[nH]c2ccccc12)C(=O)N[C@@H](Cc1c[nH]c2ccccc12)C(=O)N[C@@H](CCCNC(=N)N)C(=O)O` [Peptide 27P-2] (H-FWQRRIRRWRRGSGYGSPGRRWWRWWR-OH; N-terminus and C-terminus assumed), for which the minimum inhibitory concentration (MIC) is 5 to 10 mM. In turn, `CSCC[C@H](NC(=O)[C@H](Cc1c[nH]c2ccccc12)NC(=O)[C@H](CCC(N)=O)NC(=O)[C@H](Cc1c[nH]c2ccccc12)NC(=O)[C@H](Cc1ccccc1)NC(=O)[C@H](CCCNC(=N)N)NC(=O)[C@H](CCCNC(=N)N)NC(=O)[C@H](CCC(=O)O)NC(=O)[C@H](CC(C)C)NC(=O)[C@@H]1CCCN1C(=O)[C@H](CO)NC(=O)[C@H](CC(=O)O)NC(=O)[C@H](CC(C)C)NC(=O)[C@H](CC(C)C)NC(=O)[C@H](CCCNC(=N)N)NC(=O)[C@H](CCCNC(=N)N)NC(=O)[C@@H](NC(=O)[C@H](CC(C)C)NC(=O)[C@H](CCC(=O)O)NC(=O)[C@H](CCC(N)=O)NC(=O)[C@H](CC(C)C)NC(=O)[C@H](CCC(N)=O)NC(=O)[C@H](CCC(=O)O)NC(=O)[C@H](CO)NC(=O)CNC(=O)[C@H](CCCNC(=N)N)NC(=O)[C@@H]1CCCN1C(=O)[C@@H](N)CCCCN)[C@@H](C)O)C(=O)N[C@@H](CCCNC(=N)N)C(=O)N[C@@H](CCCNC(=N)N)C(=O)O` [UGK-37, KPRGSEQLQELTRRLLDSPLERRFWOWMRR] (H-KPRGSEQLQELTRRLLDSPLERRFWQWMRR-OH; N-terminus and C-terminus assumed) registered a minimum inhibitory concentration (MIC) greater than 20 mM. In the case of `CC(C)C[C@H](NC(=O)[C@H](Cc1c[nH]cn1)NC(=O)[C@H](C)NC(=O)[C@H](CCCCN)NC(=O)[C@H](CO)NC(=O)CNC(=O)[C@H](CCC(=O)O)NC(=O)[C@H](CC(C)C)NC(=O)[C@H](CO)NC(=O)[C@H](CCCCN)NC(=O)[C@H](CC(C)C)NC(=O)[C@H](CCCCN)NC(=O)[C@H](CCC(N)=O)NC(=O)[C@H](CC(C)C)NC(=O)[C@H](CC(C)C)NC(=O)[C@H](CCC(=O)O)NC(=O)[C@H](CCC(=O)O)NC(=O)[C@@H]1CCCN1C(=O)[C@H](CCCNC(=N)N)NC(=O)[C@@H](N)CCCCN)C(=O)N[C@@H](CCC(N)=O)C(=O)N[C@@H](Cc1c[nH]cn1)C(=O)N[C@@H](Cc1c[nH]cn1)C(=O)N[C@@H](CC(=O)O)C(=O)N[C@@H](Cc1c[nH]c2ccccc12)C(=O)N[C@H](C(=O)N[C@@H](CO)C(=O)N[C@@H](CCCCN)C(=O)O)[C@@H](C)O` [UGK-41] (H-KRPEELLQKLKSLEGSKAHLQHHDWTSK-OH; N-terminus and C-terminus assumed), the minimal inhibitory concentration (MIC) is listed as greater than 20 mM. With `CC(C)C[C@H](NC(=O)[C@H](CO)NC(=O)[C@H](CCCCN)NC(=O)[C@H](CC(C)C)NC(=O)[C@H](CCCCN)NC(=O)[C@H](CCC(=O)O)NC(=O)[C@H](CC(C)C)NC(=O)[C@H](CC(C)C)NC(=O)[C@H](CCC(=O)O)NC(=O)[C@H](CCC(=O)O)NC(=O)[C@H](CC(C)C)NC(=O)[C@H](CCCNC(=N)N)NC(=O)[C@H](CCCCN)NC(=O)[C@@H]1CCCN1C(=O)[C@@H](N)CCC(N)=O)C(=O)N[C@@H](CCC(=O)O)C(=O)NCC(=O)N[C@@H](CO)C(=O)N[C@@H](CCCCN)C(=O)N[C@@H](C)C(=O)N[C@@H](Cc1c[nH]cn1)C(=O)N[C@@H](CCC(=O)O)C(=O)N[C@@H](CCCCN)C(=O)N[C@@H](CC(C)C)C(=O)N[C@@H](Cc1c[nH]cn1)C(=O)N[C@@H](CC(=O)O)C(=O)N[C@@H](Cc1c[nH]c2ccccc12)C(=O)N[C@H](C(=O)N[C@@H](CCCNC(=N)N)C(=O)N[C@@H](CCCCN)C(=O)O)[C@@H](C)O` [UGK-49] (H-QPKRLEELLEKLKSLEGSKAHEKLHDWTRK-OH; N-terminus and C-terminus assumed), the MIC is reported as greater than 20 mM.
